{
  "source": "ChEMBL document CHEMBL1157244",
  "about": "“Triterpenoid saponins from the fruits of Caryocar glabrum” (J Nat Prod, 2006)",
  "key": {"[1]": {"assay": "Toxicity in sheep erythrocytes assessed as hemolysis", "format": "cell-based, Ovis aries, Erythrocyte", "conditions": "for HD100: erythrocyte; for HC50: sheep erythrocytes, read-out: HD50 (the source's name)"}, "[2]": {"assay": "Toxicity in sheep erythrocytes assessed as hemolysis at >500 ug/mL", "format": "cell-based, Ovis aries, Erythrocyte", "conditions": "read-out: Activity"}},
  "data": [
    {"molecule": "COC(=O)[C@H]1O[C@@H](O[C@H]2[C@@H](O)C[C@]3(C)[C@H]4CC=C5[C@@H]6CC(C)(C)CC[C@]6(C(=O)O)CC[C@@]5(C)[C@]4(C)CC[C@H]3C2(C)C)[C@H](O)[C@@H](O[C@@H]2O[C@H](CO)[C@H](O)[C@H](O)[C@H]2O)[C@@H]1O", "values": [
      {"measurement": "HD100", "setting": "[1]", "value": 303, "unit": "µM"},
      {"measurement": "HC50", "setting": "[1]", "value": 157, "unit": "µM"}
    ]},
    {"molecule": "CC1(C)CC[C@]2(C(=O)O)CC[C@]3(C)C(=CC[C@@H]4[C@@]5(C)CC[C@H](O[C@@H]6O[C@H](C(=O)O)[C@@H](O)[C@H](O)[C@H]6O)[C@@](C)(CO)C5CC[C@]43C)[C@@H]2C1", "note": "(stereo not given in full)", "values": [
      {"measurement": "HD100", "setting": "[1]", "value": 116, "unit": "µM"},
      {"measurement": "HC50", "setting": "[1]", "value": 93, "unit": "µM"}
    ]},
    {"molecule": "CC1(C)CC[C@]2(C(=O)O)CC[C@]3(C)C(=CC[C@@H]4[C@@]5(C)CC[C@H](O[C@@H]6O[C@H](C(=O)O)[C@@H](O)[C@H](O[C@@H]7O[C@H](CO)[C@H](O)[C@H](O)[C@H]7O)[C@H]6O)[C@@](C)(CO)[C@@H]5CC[C@]43C)[C@@H]2C1", "values": [
      {"measurement": "HD100", "setting": "[1]", "value": 93, "unit": "µM"},
      {"measurement": "HC50", "setting": "[1]", "value": 45, "unit": "µM"}
    ]},
    {"molecule": "CC1(C)CC[C@]2(C(=O)O[C@@H]3O[C@H](CO)[C@@H](O)[C@H](O)[C@H]3O)CC[C@]3(C)C(=CC[C@@H]4[C@@]5(C)C[C@H](O)[C@H](O[C@@H]6O[C@H](CO)[C@@H](O)[C@H](O[C@@H]7O[C@H](CO)[C@H](O)[C@H](O)[C@H]7O)[C@H]6O)[C@@](C)(CO)[C@@H]5CC[C@]43C)[C@@H]2C1", "values": [
      {"measurement": "HD100", "setting": "[1]", "value": "> 513", "unit": "µM"},
      {"measurement": "hemolysis", "setting": "[2]", "value": 10, "unit": "%"}
    ]},
    {"molecule": "CC1(C)CC[C@]2(C(=O)O[C@@H]3O[C@H](CO)[C@@H](O)[C@H](O)[C@H]3O)CC[C@]3(C)C(=CC[C@@H]4[C@@]5(C)CC[C@H](O[C@@H]6O[C@H](C(=O)O)[C@@H](O)[C@H](O[C@@H]7O[C@H](CO)[C@H](O)[C@H](O)[C@H]7O)[C@H]6O)[C@@](C)(CO)[C@@H]5CC[C@]43C)[C@@H]2C1", "values": [
      {"measurement": "HD100", "setting": "[1]", "value": 514, "unit": "µM"},
      {"measurement": "HC50", "setting": "[1]", "value": 309, "unit": "µM"}
    ]},
    {"molecule": "CC1(C)CC[C@]2(C(=O)O)CC[C@]3(C)C(=CC[C@@H]4[C@@]5(C)C[C@H](O)[C@H](O[C@@H]6O[C@H](C(=O)O)[C@@H](O)[C@H](O[C@@H]7O[C@H](CO)[C@H](O)[C@H](O)[C@H]7O)[C@H]6O)[C@@](C)(CO)[C@@H]5CC[C@]43C)[C@@H]2C1", "values": [
      {"measurement": "HD100", "setting": "[1]", "value": 121, "unit": "µM"},
      {"measurement": "HC50", "setting": "[1]", "value": 66, "unit": "µM"}
    ]},
    {"molecule": "CC1(C)CC[C@]2(C(=O)O)CC[C@]3(C)C(=CC[C@@H]4[C@@]5(C)C[C@H](O)[C@H](O[C@@H]6O[C@H](CO)[C@@H](O)[C@H](O[C@@H]7O[C@H](CO)[C@H](O)[C@H](O)[C@H]7O)[C@H]6O)[C@@](C)(CO)[C@@H]5CC[C@]43C)[C@@H]2C1", "values": [
      {"measurement": "HD100", "setting": "[1]", "value": 24, "unit": "µM"},
      {"measurement": "HC50", "setting": "[1]", "value": 18, "unit": "µM"}
    ]},
    {"molecule": "CC1(C)CC[C@]2(C(=O)O)CC[C@]3(C)C(=CC[C@@H]4[C@@]5(C)CC[C@H](O[C@@H]6O[C@H](CO)[C@@H](O)[C@H](O[C@@H]7O[C@H](CO)[C@H](O)[C@H](O)[C@H]7O)[C@H]6O)[C@@](C)(CO)[C@@H]5CC[C@]43C)[C@@H]2C1", "values": [
      {"measurement": "HD100", "setting": "[1]", "value": 94, "unit": "µM"},
      {"measurement": "HC50", "setting": "[1]", "value": 56, "unit": "µM"}
    ]},
    {"molecule": "CC1(C)CC[C@]2(C(=O)O)CC[C@]3(C)C(=CC[C@@H]4[C@@]5(C)C[C@H](O)[C@H](O[C@@H]6O[C@H](C(=O)O)[C@@H](O)[C@H](O[C@@H]7O[C@H](CO)[C@H](O)[C@H](O)[C@H]7O)[C@H]6O)C(C)(C)[C@@H]5CC[C@]43C)[C@@H]2C1", "values": [
      {"measurement": "HD100", "setting": "[1]", "value": 49, "unit": "µM"},
      {"measurement": "HC50", "setting": "[1]", "value": 32, "unit": "µM"}
    ]},
    {"molecule": "CC1(C)CC[C@]2(C(=O)O)CC[C@]3(C)C(=CC[C@@H]4[C@@]5(C)CC[C@H](O[C@@H]6O[C@H](C(=O)O)[C@@H](O)[C@H](O[C@@H]7O[C@H](CO)[C@H](O)[C@H](O)[C@H]7O)[C@H]6O)C(C)(C)[C@@H]5CC[C@]43C)[C@@H]2C1", "note": "[GLYCOSIDE D]", "values": [
      {"measurement": "HD100", "setting": "[1]", "value": 31, "unit": "µM"},
      {"measurement": "HC50", "setting": "[1]", "value": 19, "unit": "µM"}
    ]}
  ]
}
